# Assay results: patent US6608082B1, “Treatment of erectile dysfunction using isoquinoline compound melanocortin receptor ligands” (Lion Bioscience AG, priority 1998, dated 2003)
# Read-outs that look alike come from different tables or passages of the source.
# How the values were obtained:
# [1] = target: T1, MCR-1 (Homo sapiens, UniProt Q01726); experiment: Melanocortin receptor binding assay, competition with 125I-HP 467, HEK 293 cells expressing hMCR-1; conditions: for IC50: read-out: MC-1 IC50; for % Disp. MC-1 10 μM: displacement of 125I-HP 467 at 10 μM isoquinoline compound
# T1 construct: expressed in transfected cells; host or cells: HEK 293
# Outline: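 Intact-cell competition binding, 2.5 hr at 37 °C, in PBS/10% calf serum/1 mM CaCl2; hMCR-4 cells at 4×10^3 per tube, hMCR-1 cells at 2×10^4 per tube. Filtration on BSA/CaCl2-soaked GF/B, cold 50 mM Tris pH 7.4 washes, scintillation count.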
# [2] = target: T2, MCR-4 (Homo sapiens, UniProt P32245); experiment: Melanocortin receptor binding assay, competition with 125I-HP 467, HEK 293 cells expressing hMCR-4; conditions: for IC50: read-out: MC-4 IC50
# T2 construct: expressed in transfected cells; host or cells: HEK 293
# Description: All cell culture media and reagents were obtained from GibcoBRL (Gaithersburg Md.), except for COSMIC CALF SERUM (HyClone; Logan Utah).
# Cells were suspended in PBS, 10% COSMIC CALF SERUM and 1 mM CaCl2. Cell suspensions were prepared at a density of 2×10^4 cells/ml for HEK 293 cells expressing hMCR-3, hMCR-4 or hMCR-5, and 1×10^5 cells/ml for HEK 293 cells expressing hMCR-1. Suspensions were placed in a water bath and allowed to warm to 37° C. for 1 hr.
# Binding assays were performed in a total volume of 250 μl for HEK 293 cells. […] To each tube was added 4×10^3 HEK 293 cells expressing hMCR-3, hMCR-4 or hMCR-5, or 2×10^4 cells expressing hMCR-1. Assays were incubated for 2.5 hr at 37° C.
# GF/B filter plates were prepared by soaking for at least one hour in 5 mg/ml BSA and 10 mM CaCl2. Assays were filtered using a Brandel 96-well cell harvester (Brandel Inc.; Gaithersburg, Md.). The filters were washed four times with cold 50 mM Tris, pH 7.4, the filter plates were dehydrated for 2 hr and 35 μl of MICROSCINT was added to each well. Filter plates were counted using a Packard Topcount (Packard Instrument Co.) and data analyzed using GraphPad PRISM v2.0 (GraphPad Software Inc.; San Diego Calif.) and Microsoft EXCEL v5.0a (Microsoft Corp.; Redmond Wash.).
# To assay isoquinoline compounds, binding assays were performed in duplicate in a 96 well format. […] A 0.2 ml aliquot of suspended cells was added to each well to give the cell numbers indicate above, and the cells were incubated at 37° C. for 2.5 hr. Cells were harvested on GF/B filter plates as described above and counted.
# [3] = TRG 2406 and TRG 2407 libraries, inhibition of binding of 125I-HP 467
# [4] = TRG 2408 and TRG 2409 libraries, inhibition of 125I-HP 467 binding
# [5] = competition with 125I-HP 467, HEK 293 cells expressing MCR-1
# [6] = competition with 125I-HP 467, HEK 293 cells expressing MCR-4
# [7] = inhibition of binding of 125I-HP 467, HEK 293 cells expressing MCR-4, TRG 2414 library
# [8] = inhibition of binding of 125I-HP 467, HEK 293 cells expressing MCR-1, TRG 2414 library
# [9] = inhibition of binding of 125I-HP 467, HEK 293 cells expressing MCR-1
# T2 sequence (P32245 whole entry): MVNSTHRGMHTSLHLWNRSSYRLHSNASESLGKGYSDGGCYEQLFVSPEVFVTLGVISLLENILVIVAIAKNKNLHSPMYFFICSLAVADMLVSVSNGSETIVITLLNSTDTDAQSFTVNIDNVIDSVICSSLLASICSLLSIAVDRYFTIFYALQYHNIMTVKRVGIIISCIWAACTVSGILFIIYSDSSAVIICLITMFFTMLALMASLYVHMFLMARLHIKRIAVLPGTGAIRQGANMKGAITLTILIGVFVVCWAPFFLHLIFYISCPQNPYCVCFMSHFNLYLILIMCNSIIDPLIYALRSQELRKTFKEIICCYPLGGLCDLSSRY
# T1 sequence (Q01726 whole entry): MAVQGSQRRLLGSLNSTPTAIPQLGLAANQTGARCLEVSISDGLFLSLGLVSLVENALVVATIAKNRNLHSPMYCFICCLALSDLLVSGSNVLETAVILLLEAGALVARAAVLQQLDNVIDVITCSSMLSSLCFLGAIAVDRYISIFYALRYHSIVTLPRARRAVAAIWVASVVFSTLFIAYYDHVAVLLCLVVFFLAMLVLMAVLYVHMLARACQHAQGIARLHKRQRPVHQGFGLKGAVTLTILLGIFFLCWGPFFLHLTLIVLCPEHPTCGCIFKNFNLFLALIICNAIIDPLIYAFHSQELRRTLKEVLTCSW
smiles,measurement,setting,value
CCCOc1ccc(C2C(CNCc3ccccc3)c3ccccc3CN2CCCCC(CN)NCC(C)c2ccc(CC(C)C)cc2)cc1 (mixture of isomers) [Cmpd 192],IC50,"[1]; TRG 2414 library, inhibition of binding of 125I-HP 467, HEK 293 cells expressing MCR-1",11400 nM
same,IC50,"[2]; TRG 2414 library, inhibition of binding of 125I-HP 467, HEK 293 cells expressing MCR-4",16000 nM
CNC(CN)CN1Cc2ccccc2C(CNC2CCCCC2)C1c1cccn1C (mixture of isomers) [TRG 2405-94],IC50,"[1]; TRG 2405 section, inhibition of binding of 125I-HP 467, HEK 293 cells expressing MCR-1",2110 nM
same,% Disp. MC-1 10 μM,[1]; first of duplicate,68.9%
same,% Disp. MC-1 10 μM,[1]; second of duplicate,72%
same,IC50,"[2]; TRG 2405 section, inhibition of binding of 125I-HP 467, HEK 293 cells expressing MCR-4",10500 nM
CNC(CN)CCCCN1Cc2ccccc2C(CNCc2ccccc2O)C1c1cccc(Oc2ccc(Cl)c(Cl)c2)c1 (mixture of isomers) [TRG 2406-4],IC50,[1]; [3],1720 nM
same,IC50,[2]; [3],3780 nM
NCCN1Cc2ccccc2C(CNCc2ccccc2O)C1c1ccc(Oc2ccccc2)cc1 (mixture of isomers) [TRG 2406-11],IC50,[1]; [3],10500 nM
same,IC50,[2]; [3],7000 nM
CNC(CN)CCCCN1Cc2ccccc2C(CNc2ccccc2)C1c1ccc(Cl)cc1Cl (mixture of isomers) [TRG 2407-1],IC50,[1]; [3],5570 nM
same,IC50,[2]; [3],10600 nM
CNC(CN)CCCCN1Cc2ccccc2C(CNCc2ccccc2OC)C1c1ccc(Cl)cc1Cl (mixture of isomers) [TRG 2407-14],IC50,[1]; [3],370 nM
same,IC50,[2]; [3],410 nM
CNC(CN)CCCCN1Cc2ccccc2C(CNCCc2ccccc2Cl)C1c1ccc(Cl)cc1Cl (mixture of isomers) [TRG 2407-22],IC50,[1]; [3],1340 nM
same,IC50,[2]; [3],690 nM
CNC(CN)CCCCN1Cc2ccccc2C(CNCCc2ccccc2OC)C1c1ccc(Cl)cc1Cl (mixture of isomers) [TRG 2407-23],IC50,[1]; [3],940 nM
same,IC50,[2]; [3],690 nM
CNC(CN)CCCCN1Cc2ccccc2C(CNCCc2cccc(Cl)c2)C1c1ccc(Cl)cc1Cl (mixture of isomers) [TRG 2407-24],IC50,[1]; [3],1790 nM
same,IC50,[2]; [3],800 nM
CNC(CN)CCCCN1Cc2ccccc2C(CNCC2CCCCC2)C1c1ccc(Cl)cc1Cl (mixture of isomers) [TRG 2407-31],IC50,[1]; [3],1110 nM
same,IC50,[2]; [3],1020 nM
CNC(CN)CCCCN1Cc2ccccc2C(CNN2CCCCC2)C1c1ccc(Cl)cc1Cl (mixture of isomers) [TRG 2407-34],IC50,[1]; [3],3970 nM
same,IC50,[2]; [3],2010 nM
CCNc1ccc(C2C(CNc3cccc(O)c3)c3ccccc3CN2CCCCC(CN)NC)cc1 (mixture of isomers) [TRG 2407-47],IC50,[1]; [3],840 nM
same,MC-4 IC50,[2]; [3],no fit
CCNc1ccc(C2C(CNC3CCCCC3)c3ccccc3CN2CCCCC(CN)NCCN)cc1 (mixture of isomers) [TRG 2408-7],IC50,[1]; [4],1300 nM
same,IC50,[2]; [4],44500 nM
CNCCNC(CN)CCCCN1Cc2ccccc2C(CNC2CCCCC2)C1c1ccc(-c2ccccc2)cc1 (mixture of isomers) [TRG 2408-24],IC50,[1]; [4],1940 nM
same,IC50,[2]; [4],17100 nM
CCNc1ccc(C2C(CNC3CCCCC3)c3ccccc3CN2CCCCC(N)CN)cc1 (mixture of isomers) [TRG 2408-31],IC50,[1]; [4],1270 nM
same,IC50,[2]; [4],46500 nM
NCC(CCN1Cc2ccccc2C(CNC2CCCCC2)C1c1ccc(Cl)cc1Cl)NCCc1ccccc1 (mixture of isomers) [TRG 2408-102],IC50,[1]; [4],7050 nM
same,IC50,[2]; [4],1880 nM
NCC(N)CCN1Cc2ccccc2C(CNC2CCCCC2)C1c1ccc(-c2ccccc2)cc1 (mixture of isomers) [TRG 2408-111],IC50,[1]; [4],7520 nM
same,IC50,[2]; [4],12000 nM
CNCCNC(CN)CCN1Cc2ccccc2C(CNC2CCCCC2)C1c1ccc(-c2ccccc2)cc1 (mixture of isomers) [TRG 2408-114],IC50,[1]; [4],3240 nM
same,IC50,[2]; [4],10500 nM
CNC(C)CNC(CN)CCCCN1Cc2ccccc2C(CN)C1c1ccc(-c2ccccc2)cc1 (mixture of isomers) [TRG 2411-28],IC50,[1]; [5],560 nM
same,IC50,[2]; [6],1230 nM
CCNc1ccc(C2C(CNCCc3ccccc3)c3ccccc3CN2CCCCC(CN)NCCc2ccc(Br)cc2)cc1 (mixture of isomers) [TRG 2411-41],IC50,[1]; [5],490 nM
same,IC50,[2]; [6],1640 nM
CCCCNc1ccc(C2C(CNC3CCCCC3)c3ccccc3CN2CCCCC(CN)NCC)cc1 (mixture of isomers) [TRG 2411-87],IC50,[1]; [5],230 nM
same,IC50,[2]; [6],830 nM
NCC(CCCCN1Cc2ccccc2C(CNCc2ccccc2C(F)(F)F)C1c1ccc(Cl)cc1Cl)NCc1ccccc1 (mixture of isomers) [TRG 2414-3],IC50,[2]; [7],65600 nM
COc1ccccc1CCNCC1c2ccccc2CN(CCCCC(N)CN)C1c1ccc(Cl)cc1Cl (mixture of isomers) [TRG 2414-9],IC50,[1]; [8],1100 nM
same,IC50,[2]; [7],700 nM
COc1ccccc1CCNCC1c2ccccc2CN(CCCCC(CN)NCc2ccccc2)C1c1ccc(Cl)cc1Cl (mixture of isomers) [TRG 2414-11],IC50,[1]; [8],1800 nM
same,IC50,[2]; [7],3480 nM
COc1ccc(CCNCC2c3ccccc3CN(CCCCC(CN)NCCc3ccccc3)C2c2ccc(Cl)cc2Cl)cc1 (mixture of isomers) [TRG 2414-26],IC50,[1]; [8],3950 nM
same,IC50,[2]; [7],2520 nM
NCC(N)CCCCN1Cc2ccccc2C(CNC2CCCCCC2)C1c1ccc(Cl)cc1Cl (mixture of isomers) [TRG 2414-33],IC50,[1]; [8],1900 nM
same,IC50,[2]; [7],720 nM
NCC(N)CCCCN1Cc2ccccc2C(CNC2CCCCC2)C1c1ccc(Cl)cc1Cl (mixture of isomers) [TRG 2414-37],IC50,[1]; [8],992 nM
same,IC50,[2]; [7],1300 nM
NCC(CCCCN1Cc2ccccc2C(CNC2CCCCC2)C1c1ccc(Cl)cc1Cl)NCc1ccccc1 (mixture of isomers) [TRG 2414-39],IC50,[1]; [8],2120 nM
same,IC50,[2]; [7],4370 nM
COc1ccccc1CCNCC1c2ccccc2CN(CCCCC(CN)NCC(C)c2ccc(CC(C)C)cc2)C1c1cc(C(F)(F)F)cc(C(F)(F)F)c1 (mixture of isomers) [TRG 2414-52],IC50,[1]; [8],22100 nM
same,IC50,[2]; [7],17500 nM
NCC(CCCN1Cc2ccccc2C(CNCCc2ccccc2)C1c1ccc([N+](=O)[O-])cc1)NCCc1ccccc1 (centres unmarked) [TRG 2413-13],IC50,[1]; [9],1070 nM
NCC(CCCN1Cc2ccccc2C(CNC2CCCCC2)C1c1ccc([N+](=O)[O-])cc1)NCCc1ccccc1 (centres unmarked) [TRG 2413-14],IC50,[1]; [9],1570 nM
NCC(CCCN1Cc2ccccc2C(CN)C1c1ccc([N+](=O)[O-])cc1)NCCc1ccccc1 (centres unmarked) [TRG 2413-15],IC50,[1]; [9],1920 nM
NCC(N)CCCCN1Cc2ccccc2C(CNCc2ccccc2C(F)(F)F)C1c1ccc(Cl)cc1Cl (centres unmarked) [TRG 2414-1],IC50,[2]; [7],7590 nM
NCC(CCCCN1Cc2ccccc2C(CNCc2ccccc2C(F)(F)F)C1c1ccc(Cl)cc1Cl)NCCc1ccccc1 (centres unmarked) [TRG 2414-2],IC50,[2]; [7],29300 nM
CC(C)Cc1ccc(C(C)CNC(CN)CCCCN2Cc3ccccc3C(CNCc3ccccc3C(F)(F)F)C2c2ccc(Cl)cc2Cl)cc1 (centres unmarked) [TRG 2414-4],MC-4 IC50,[2]; [7],no fit
CCOc1ccccc1CNCC1c2ccccc2CN(CCCCC(N)CN)C1c1ccc(Cl)cc1Cl (centres unmarked) [TRG 2414-5],IC50,[2]; [7],480 nM
CCOc1ccccc1CNCC1c2ccccc2CN(CCCCC(CN)NCCc2ccccc2)C1c1ccc(Cl)cc1Cl (centres unmarked) [TRG 2414-6],IC50,[2]; [7],5540 nM
CCOc1ccccc1CNCC1c2ccccc2CN(CCCCC(CN)NCc2ccccc2)C1c1ccc(Cl)cc1Cl (centres unmarked) [TRG 2414-7],IC50,[2]; [7],4560 nM
CCOc1ccccc1CNCC1c2ccccc2CN(CCCCC(CN)NCC(C)c2ccc(CC(C)C)cc2)C1c1ccc(Cl)cc1Cl (centres unmarked) [TRG 2414-8],IC50,[2]; [7],13800 nM
NCC(CCCCN1Cc2ccccc2C(CNCCc2ccc(Oc3ccccc3)cc2)C1c1cc(C(F)(F)F)cc(C(F)(F)F)c1)NCc1ccc(Br)cc1 (centres unmarked) [TRG 2421-28],IC50,[1]; [9],15700 nM
NCC(CCCCN1Cc2ccccc2C(CNCCc2ccc(Oc3ccccc3)cc2)C1c1cc(C(F)(F)F)cc(C(F)(F)F)c1)NCc1ccc(-c2ccccc2)cc1 (centres unmarked) [TRG 2421-30],IC50,[1]; [9],36400 nM
